Columns and labels:
non-GCB DLBCL [1] = assay: Phoenix phase III randomized trial of R-CHOP with or without ibrutinib, analysed by LymphGen genetic subtype; format: in vivo, human; settings: younger patients (age≤60) with N1 DLBCL (n=13)
non-GCB DLBCL [2] = settings: cited from earlier work

C=CC(=O)N1CCC[C@@H](n2nc(-c3ccc(Oc4ccccc4)cc3)c3c(N)ncnc32)C1 [ibrutinib]
3-year EFS (non-GCB DLBCL [1]): 100% | 3-year OS (non-GCB DLBCL [1]): 100% | toxicity compared to the placebo arm (non-GCB DLBCL [2]; older patients on the ibrutinib arm): significantly more toxicity | toxicity of addition of ibrutinib to R-CHOP (non-GCB DLBCL [2]; younger patients with non-GCB DLBCL): did not significantly increase toxicity
